The record followed here is ChEMBL document CHEMBL1208782, “Synthesis and pharmacological validation of a novel series of non-steroidal FXR agonists” (Bioorg Med Chem Lett, 2010).

Where only a bound is given, the exact number is not on record here.

What all share (format): functional, cell-based
Assay [1] has as its target T1, Retinoic acid receptor gamma (Homo sapiens) (UniProt P13631).
T1 sequence (whole entry): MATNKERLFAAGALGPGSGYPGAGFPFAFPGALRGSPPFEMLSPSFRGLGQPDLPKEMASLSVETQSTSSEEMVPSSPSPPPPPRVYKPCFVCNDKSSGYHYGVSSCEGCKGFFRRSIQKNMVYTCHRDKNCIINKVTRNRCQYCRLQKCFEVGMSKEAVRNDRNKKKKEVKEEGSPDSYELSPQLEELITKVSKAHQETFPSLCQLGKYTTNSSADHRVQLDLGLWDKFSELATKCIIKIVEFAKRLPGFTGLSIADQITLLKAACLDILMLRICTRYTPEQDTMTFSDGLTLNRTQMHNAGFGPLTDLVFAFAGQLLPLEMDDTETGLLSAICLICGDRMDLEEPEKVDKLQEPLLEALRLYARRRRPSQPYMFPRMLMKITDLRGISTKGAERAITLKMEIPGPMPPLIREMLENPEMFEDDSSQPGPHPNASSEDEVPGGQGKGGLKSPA
The assay can be described thus: Agonist activity at RARgamma-LBD expressed in HEK293 cells assessed as Gal4-DBD interaction by cellular mammalian one hybrid assay relative to relative to retinoic acid.

For a further assay, the target named is T2, Vitamin D3 receptor (Homo sapiens, UniProt P11473).
T2 sequence (P11473 whole entry): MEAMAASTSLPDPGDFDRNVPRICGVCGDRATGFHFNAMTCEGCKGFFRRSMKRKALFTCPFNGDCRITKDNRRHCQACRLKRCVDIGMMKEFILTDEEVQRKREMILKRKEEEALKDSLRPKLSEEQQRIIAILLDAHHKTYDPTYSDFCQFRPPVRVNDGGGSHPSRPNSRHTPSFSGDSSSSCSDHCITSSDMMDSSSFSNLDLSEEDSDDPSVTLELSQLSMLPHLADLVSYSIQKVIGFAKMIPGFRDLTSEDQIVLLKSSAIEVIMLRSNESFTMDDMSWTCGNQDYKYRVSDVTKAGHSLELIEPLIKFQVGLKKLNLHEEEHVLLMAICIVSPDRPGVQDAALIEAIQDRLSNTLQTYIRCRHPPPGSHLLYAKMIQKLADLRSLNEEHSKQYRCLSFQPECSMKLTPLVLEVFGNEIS
Nature of the assay: Agonist activity at VDR-LBD expressed in HEK293 cells assessed as Gal4-DBD interaction by cellular mammalian one hybrid assay.

In assay [2] the target is T3, Retinoic acid receptor alpha (Homo sapiens) (UniProt P10276).
T3 sequence (whole entry): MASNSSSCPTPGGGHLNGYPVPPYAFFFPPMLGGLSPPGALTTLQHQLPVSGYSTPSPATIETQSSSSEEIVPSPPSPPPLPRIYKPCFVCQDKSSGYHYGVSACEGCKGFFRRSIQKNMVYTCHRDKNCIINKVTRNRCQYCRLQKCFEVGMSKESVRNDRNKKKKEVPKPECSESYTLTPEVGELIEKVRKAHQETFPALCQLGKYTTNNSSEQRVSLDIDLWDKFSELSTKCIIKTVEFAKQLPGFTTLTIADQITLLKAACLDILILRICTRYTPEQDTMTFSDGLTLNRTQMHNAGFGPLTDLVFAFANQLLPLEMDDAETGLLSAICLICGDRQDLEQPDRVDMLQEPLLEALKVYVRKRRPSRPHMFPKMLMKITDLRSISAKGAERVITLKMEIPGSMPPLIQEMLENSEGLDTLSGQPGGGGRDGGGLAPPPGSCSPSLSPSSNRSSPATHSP
Nature of the assay: Agonist activity at RARalpha-LBD expressed in HEK293 cells assessed as Gal4-DBD interaction by cellular mammalian one hybrid assay relative to retinoic acid.

In assay [3] the target is T4, Nuclear receptor subfamily 1 group I member 3 (Homo sapiens, UniProt Q14994).
T4 sequence (Q14994 whole entry): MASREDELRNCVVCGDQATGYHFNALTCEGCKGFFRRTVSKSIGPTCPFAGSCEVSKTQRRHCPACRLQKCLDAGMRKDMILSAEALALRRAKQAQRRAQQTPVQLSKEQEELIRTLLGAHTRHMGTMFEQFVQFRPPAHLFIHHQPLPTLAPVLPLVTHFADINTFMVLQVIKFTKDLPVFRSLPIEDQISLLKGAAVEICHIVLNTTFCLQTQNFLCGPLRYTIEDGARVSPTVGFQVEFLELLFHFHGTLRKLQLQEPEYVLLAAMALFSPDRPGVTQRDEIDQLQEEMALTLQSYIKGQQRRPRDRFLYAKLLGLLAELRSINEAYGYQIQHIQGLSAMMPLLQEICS
Nature of the assay: Agonist activity at CAR-LBD expressed in HEK293 cells assessed as Gal4-DBD interaction by cellular mammalian one hybrid assay.

Assay [4] has as its target T5, Thyroid hormone receptor alpha (Homo sapiens) (UniProt P10827).
T5 sequence (whole entry): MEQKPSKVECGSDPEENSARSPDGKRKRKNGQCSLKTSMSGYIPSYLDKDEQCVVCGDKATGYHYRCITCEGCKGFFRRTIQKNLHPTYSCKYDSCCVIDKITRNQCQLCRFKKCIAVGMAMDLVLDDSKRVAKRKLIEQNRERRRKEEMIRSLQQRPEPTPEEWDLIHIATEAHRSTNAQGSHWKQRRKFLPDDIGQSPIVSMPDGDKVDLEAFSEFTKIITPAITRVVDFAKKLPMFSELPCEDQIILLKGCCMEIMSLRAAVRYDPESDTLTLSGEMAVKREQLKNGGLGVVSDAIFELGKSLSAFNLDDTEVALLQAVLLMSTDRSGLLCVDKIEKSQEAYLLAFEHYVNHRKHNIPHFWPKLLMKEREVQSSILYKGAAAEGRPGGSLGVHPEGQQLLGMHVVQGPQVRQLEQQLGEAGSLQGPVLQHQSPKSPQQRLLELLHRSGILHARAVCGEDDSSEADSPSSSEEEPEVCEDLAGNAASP
The assay can be described thus: Agonist activity at TRalpha-LBD expressed in HEK293 cells assessed as Gal4-DBD interaction by cellular mammalian one hybrid assay relative to thyroid.

The target of assay [5] is T6, Bile acid receptor (Homo sapiens) (UniProt Q96RI1).
T6 sequence (whole entry): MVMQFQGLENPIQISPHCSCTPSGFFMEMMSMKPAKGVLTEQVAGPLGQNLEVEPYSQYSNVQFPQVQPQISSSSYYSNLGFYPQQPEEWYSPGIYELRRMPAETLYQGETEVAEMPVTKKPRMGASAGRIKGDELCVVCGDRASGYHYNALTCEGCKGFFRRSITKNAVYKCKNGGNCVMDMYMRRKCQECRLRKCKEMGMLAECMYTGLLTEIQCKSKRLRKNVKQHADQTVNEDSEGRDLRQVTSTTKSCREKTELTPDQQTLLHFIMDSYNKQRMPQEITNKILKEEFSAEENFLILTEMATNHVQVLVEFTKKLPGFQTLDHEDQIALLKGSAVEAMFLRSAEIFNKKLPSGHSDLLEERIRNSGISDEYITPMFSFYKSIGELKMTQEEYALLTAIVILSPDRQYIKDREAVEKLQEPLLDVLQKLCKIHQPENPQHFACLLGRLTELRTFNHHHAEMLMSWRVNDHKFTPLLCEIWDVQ
The assay can be described thus: Agonist activity at human […] FXR LBD expressed in HEK293 cells coexpressing GAL4-DNA bindig domain and pFRluc by mammalian one-hybrid assay relative to GW-4064.

Regarding `CC(C)c1onc(-c2c(Cl)cccc2Cl)c1COc1ccc(N(C)Cc2ccc(C(=O)O)cc2)c(C(F)(F)F)n1`, the Efficacy in assay [1] came to 0%; in assay [2], 0%; in assay [4], 0%; in assay [5], 75%. For the same compound, the EC50 (at Vitamin D3 receptor; in assay [3]) was above 10 µM throughout.

`CN(Cc1ccc(C(=O)O)cc1)c1ccc(OCc2c(-c3c(Cl)cccc3Cl)noc2C2CC2)nc1C(F)(F)F`: the Efficacy in assay [1] was found to be 0%; in assay [2], 0%; in assay [4], 0%; in assay [5] it was 81%. Further, the EC50 (at Vitamin D3 receptor; in assay [3]) was above 10 µM each time.

Take `CN(Cc1cccc(C(=O)O)c1)c1ccc(OCc2c(-c3c(Cl)cccc3Cl)noc2C2CC2)nc1C(F)(F)F`: the Efficacy in assay [1] amounted to 0%; in assay [2] it was 0%; in assay [4] it was 0%; in assay [5] it was 79%. For the same compound, the EC50 (on Vitamin D3 receptor; in assay [3]) was above 10 µM throughout.
